Experimental data as given in US5747051A, “Skin care compositions containing an amide of a hydroxy fatty acid and a retinoid” (Elizabeth Arden Co., Division of Conopco, Inc., priority 1996, dated 1998).

Key:
[1] = test system: Transglutaminase (TGase I) in human keratinocytes; assay: Transglutaminase (TGase I ELISA) assay of keratinocyte differentiation, normalized to DNA, Example 1; format: cell-based; conditions: 2.5×10^-7 M, 2.5×10^-8 M and 2.5×10^-9 M
Protocol: Human keratinocytes, isolated from neonatal foreskin by trypsin treatment were grown in Dulbecco Modification Eagle (DME) Hams F12 (1:1) medium/10% fetal calf serum in the presence of irradiated 3T3 mouse fibroblasts for establishing dividing keratinocyte colonies. Cells were grown under the above condition until their second passage and kept frozen for future use. […] On day 7, when the cells were 80-90% confluent, they were trypsinized and plated in the serum-free medium for the various experiments.
During the process of terminal differentiation in the epidermis, a 15 nm thick layer of protein, known as the cornified envelope (CE) is formed on the inner surface of the cell periphery. The CE is composed of numerous distinct proteins which have been cross-linked together by the formation of N ^ε -(γ-glutamyl) lysine isodipeptide bonds catalyzed by the action of at least two different transglutaminases (TGases) expressed in the epidermis. TGase I is expressed in abundance in the differentiated layers of the epidermis, especially the granular layer, but is absent in the undifferentiated basal epidermis. […]
Keratinocytes (cultured as described above) were plated in 96 well plates at a density of 3,000 cells per well in 200 μl media. […] The absorbance of samples was read at 492 nm in the plate reader. […] TGase levels were determined by subtracting background from the readings from each treatment and determining mean ±s.d. for the replicates exposed to both Ab.
The level of TGase-1 was normalized to DNA content of the cells in the same well thus eliminating variation due to differences in cell number. DNA quantitation is a particularly useful indicator of cell number, including keratinocyte cell number, because each cell has to all intents and purposes an identical genome and therefore an identical quantity of DNA The total DNA content of a well of cells therefore is directly proportional to the cell number in that well. Quantitation of DNA was used to normalize the TGase data to cell number. […]

[2] = test system: transglutaminase 1 (TG1) in human keratinocytes; assay: Transglutaminase 1 (TG1) ELISA assay of keratinocyte differentiation, normalised to DNA, Example 2; format: cell-based; conditions: for inhibiting keratinocyte TG1 level when used alone, in words: 2.5×10^-7 M retinol or 10^-6 M lactamide-DEA alone, compared with retinoic acid 2.5×10^-7 M
Protocol: Human keratinocytes, isolated from neonatal foreskin by trypsin treatment were grown in Dulbecco Modification Eagle (DME) Hams F12 (1:1) medium/10% fetal calf serum in the presence of irradiated 3T3 mouse fibroblasts for establishing dividing keratinocyte colonies. Cells were grown under the above condition until their second passage and kept frozen for future use. Frozen second passage keratinocytes were thawed and plated into the above medium and grown for five days before they were switched to a serum-free MCDB 153-based medium keratinocyte growth medium (KGM) from Clonetics Corporation, San Diego, Calif. containing 0.15 mM Ca, or keratinocyte serum-free media (KSFM) from GIBCO containing 0.09 mM Ca). On day 7, when the cells were 80-90% confluent, they were trypsinized and plated in the serum-free medium for the various experiments.
During the process of terminal differentiation in the epidermis, a 15 nm thick layer of protein, known as the cornified envelope (CE) is formed on the inner surface of the cell periphery. The CE is composed of numerous distinct proteins which have been cross-linked together by the formation of N ^ε -(γ-glutamyl) lysine isodipeptide bonds catalyzed by the action of at least two different transglutaminases (TGases) expressed in the epidermis. TGase I is expressed in abundance in the differentiated layers of the epidermis, especially the granular layer, but is absent in the undifferentiated basal epidermis. Thus TGase I is a useful marker of epidermal keratinocyte differentiation with high TGase I levels indicating a more differentiated state. An ELISA based TGase I assay, using a TGase I antibody, was used to assess the state of differentiation of the cultured keratinocytes in the examples that follow.
Keratinocytes (cultured as described above) were plated in 96 well plates at a density of 3,000 cells per well in 200 μl of cell culture media. After incubation for four days, the media was changed to media containing test compounds (six replicates per test). The cells were cultured for a further 72 hours after which time the media was aspirated and the plates stored at -70° C. After the plates were removed from the freezer, the cells were further freezed fractured by freezing and thawing and then washed 3× with PBS. The cells were incubated for one hour at room temperature (R/T) with TBS/5% BSA buffer. Cells were then incubated with 100 μl of monoclonal anti-human transglutaminase (IgG) mouse antibody (primary antibody) obtained from Biomedical Technologies Inc. diluted 1:2000 in TBS/1% BSA buffer for two hours at 37° C., and then rinsed six times with wash buffer (TBS/1% BSA/0.05% Tween-20). Cells were next incubated with 100 μl of Fab fragment, peroxidase conjugated anti-mouse IgG antibody (secondary antibody) from Amersham diluted 1:4,000 in wash buffer for two hours at 37° C. and then rinsed three times with wash buffer and three times with PBS. Cells were incubated with substrate solution (4 mg o-phenylene diamine and 3.3 μl 30% H2 O2 in 1O ml 0.1M citrate buffer, pH 5.0) for five minutes at R/T and in darkness (under aluminum foil). The reaction was stopped by the addition of 50 μl 4N H2SO4. The absorbance of samples was read at 492 nm in the plate reader. Out of the six replicates, four were treated with both antibodies, two were treated only with the secondary antibody (i.e., to determine the background binding of the enzyme conjugated antibody). Transglutaminase I levels were determined by subtracted background from the readings from each treatment and determining the mean s.d. for the replicates exposed to both antibodies.
The level of TGase-1 detected after treatment of the cells could be influenced by cell number, i.e., the greater the number of cells the greater the level of TGase-1 detected. The level of TGase-1 was normalized to DNA content of the cells in the same well thus eliminating variation due to differences in cell number. […]

[3] = Homo sapiens, Keratinocyte, Table 2A, 2.5 × 10^-8 M, 72 hour treatment, n = 3, read-out: TGase/DNA (% control)
[4] = Homo sapiens, Keratinocyte, Table 2B, 2.5 × 10^-7 M, 72 hour treatment, n = 3, read-out: TGase/DNA (% control)
[5] = Table 2A, 2.5 × 10^-8 M, 72 hour treatment, n = 3, control 18.42 ± 3.88
[6] = Table 2B, 2.5 × 10^-7 M, 72 hour treatment, n = 3, control 64.11 ± 2.91

Row | Compound | decrease in transglutaminase level, dose dependence [1] | inhibiting keratinocyte TG1 level when used alone, in words [2] | effect on keratinocyte differentiation, in words (summary of Examples 1 and 2) [2] | activity at 0.025 µM [2, 3] | activity at 0.25 µM [2, 4] | mean TGase/DNA × 10^5 ± s.d [2, 5] | mean TGase/DNA × 10^5 ± s.d [2, 6] | inhibitory effect on keratinocyte TG1 level when used alone, in words ([2]; 10^-8 M, amide alone) | activity at 0.01 µM ([2]; Homo sapiens, Keratinocyte, Table 2A, 10^-8 M, 72 hour treatment, n = 3, read-out: TGase/DNA (% control)) | mean TGase/DNA × 10^5 ± s.d ([2]; Table 2A, 10^-8 M, 72 hour treatment, n = 3, control 18.42 ± 3.88) | effect on keratinocyte differentiation (transglutaminase level), in words ([1]; vs ethanol control and corresponding retinol treatments) | activity at 1 µM ([2]; Homo sapiens, Keratinocyte, Table 2B, 10^-6 M, 72 hour treatment, n = 3, read-out: TGase/DNA (% control)) | mean TGase/DNA × 10^5 ± s.d ([2]; Table 2B, 10^-6 M, 72 hour treatment, n = 3, control 64.11 ± 2.91)
1 | CC1=C(/C=C/C(C)=C/C=C/C(C)=C/CO)C(C)(C)CCC1 [Retinol, retinol] | dose dependent | less effective | completely ineffective at decreasing keratinocyte differentiation | 79% | 91% | 14.62 ± 2.99 | 58.47 ± 6.25 |  |  |  |  |  | 
2 | CCCCCCCCCCC(O)CC(N)=O (stereo not drawn) [C13-β-hydroxy-acid amide, C13 β-hydroxy acid amide] |  |  |  |  |  |  |  | no inhibitory effect | 101% | 18.53 ± 4.58 |  |  | 
3 | CC1=C(/C=C/C(C)=C/C=C/C(C)=C/C(=O)O)C(C)(C)CCC1 [Retinoic acid, retinoic acid] | dose dependent |  | in a dose dependent manner, decreased keratinocyte differentiation | 6% | 73% | 1.05 ± 1.05 | 46.71 ± 7.83 |  |  |  | decreased keratinocyte differentiation over both the ethanol control and did so to a significantly greater extent than each of the corresponding 2.5×10^-7 M, 2.5×10^-8 M and 2.5×10^-9 M retinol treatments |  | 
4 | CC(O)C(=O)NCCO (centres unmarked) [lactamide-MEA, lactamide monoethanolamide] |  | less effective |  |  |  |  |  |  |  |  |  | 86% | 55.22 ± 2.43
